Non-standard residues stand in square brackets, D forms with d. No end group written: not given here.

Common to all, as to format: cell-based
The subject of experiment [1] is neurons in primary cultures of rat dorsal root ganglia. Kind of experiment: Neuronal excitability, action potentials evoked by chemical stimulus (pH 6.0), patch clamp current-clamp. The following applies: 1 mM peptide. Here is the method: (§1) The activity of the enkephalin-derived peptide defined by SEQ ID NO: 7 (Tyr-D-Ala-Gly-Phe-Leu) on the excitability of neurons was studied in primary cultures of rat dorsal root ganglia. These neurons were extracted following widely known methods [Nicol, G. D., Lopshire, J. C. and Pafford, C. M. (1997) Tumor necrosis factor enhances the capsaicin sensitivity of rat sensory neurons. J. Neurosci. 17, 975-982]. The neurons were cultured in a DMEM medium supplemented with 10% bovine serum, 5% horse serum and 50 ng/mL NGF for 2 days and the electrical activity was followed by means of a patch clamp technique with a conventional electrophysiology equipment in the current-clamp configuration [Hille, B. (2001) Ion channels of excitable membranes. Third Ed. Sinauer Associates, Inc]. Two neuron stimulation protocols were used to determine the inhibitory effect of the enkephalin-derived peptide defined by SEQ ID NO: 7.
The neurons were first stimulated by means of a chemical stimulus such as the exposure to a buffered solution at pH 6.0. In these conditions, acid-dependent channels depolarizing the neuronal membrane are activated, triggering action potentials (FIG. 1). […] The inhibition of neuronal excitability caused by the enkephalin-derived peptide defined by SEQ ID NO: 7 is reversible as shown by the recovery of said excitability after eliminating the peptide from the extracellular medium. […]
(In general: Patch clamp records ionic current or voltage across a cell membrane.)

Experiment [2] shares this test system. The experiment in a line: Neuronal excitability, electrically evoked action potentials (40 mV depolarizing stimulus), patch clamp current-clamp. The following applies: 1 mM peptide. On the procedure:
as §1
Secondly, the effect of the enkephalin-derived peptide defined by SEQ ID NO: 7 on electrically evoked neuronal activity was evaluated. To that end, the neurons were excited with a depolarizing electrical stimulus of 40 mV from their rest potential. As a result, the repetitive action potentials were triggered throughout the electrical stimulation time (FIG. 2). […]

Experiment [3] deals with primary cultures of rat hippocampus neurons. The experiment in a line: Neuronal exocytosis of [3H]-L-glutamate. The following applies: 1 mM peptide alone, 1 hour at 37° C; depolarization with 75 mM KCl and 2 mM CaCl2; FIG. 4. Here is the method: To determine if the enkephalin-derived peptides inhibit the neuronal exocytosis of neurotransmitters, their activity on the release of the neurotransmitter L-glutamate from primary cultures of rat hippocampus neurons was monitored. The exocytosis of this neurotransmitter in neuronal cultures can be achieved by means of the […] depolarization of the cells. The primary cultures of rat embryo hippocampus are prepared by means of conventional methods [Blanes-Mira, C., Merino, J. M., Valera, E., Fernandez-Ballester, G., Gutierrez, L. M., Viniegra, S., Pérez-Payá, E. and Ferrer-Montiel, A. Small peptides patterned after the N-terminus domain of SNAP25 inhibit SNARE complex assembly and regulated exocytosis. J. Neurochem. 88, 124-135] and are maintained in culture for 14 days in an incubator at 37° C. and 5% CO2. The cultures are incubated with [^3H]-L-glutamine to load them with [^3H]-L-glutamate for 3 hours at 37° C. The excess [^3H]-L-glutamine is then washed and they are incubated with 1 mM of the peptides to be studied for 1 hour at 37° C. The release of [^3H]-L-glutamate is carried out by means of depolarization with 75 mM KCl and 2 mM CaCl2 buffered in physiological buffer for 10 minutes at 37° C. The culture medium is collected and the amount of [^3H]-L-glutamate is quantified in a beta radioactivity counter. The results are standardized with respect to the release of [^3H]-L-glutamate in the absence of the peptide and are corrected with respect to the baseline release in the absence of calcium. […] The incubation with the enkephalin-derived peptide defined by SEQ ID NO: 6 caused a 4% inhibition.
In order to determine if the activity of enkephalin-derived peptides is additive and/or synergistic with the exocytosis inhibiting peptide Argireline®, defined by SEQ ID NO: 5, the potency of both peptides for separately and jointly inhibiting the electrically evoked release of [^3H]-L-glutamate in the presence of Ca^2+ was compared. […]

Take “Tyr-D-Ala-Gly-Phe-Leu (Y[dA]GFL; listed as Homo sapiens) [SEQ ID NO: 7, enkephalin-derived peptide]”: the “effect on action potentials evoked by exposure to acidic extracellular medium” value in experiment [1] (buffered solution at pH 6.0, FIG. 1) was “inhibition of the action potentials”. In addition, the “reversibility of the inhibition of neuronal excitability after eliminating the peptide” value in experiment [1] (pH 6.0 stimulus, after washing) is given as “reversible”. Moreover, the “reversibility of the inhibition of electrically evoked action potentials” value in experiment [2] (after washing) is recorded as “partially reversible”. In experiment [2] (depolarizing electrical stimulus of 40 mV from rest potential, FIG. 2), the “effect on electrically evoked action potentials” value was “decrease in the frequency and amplitude of the action potentials”. The “inhibition of exocytosis of [3H]-L-glutamate” value in experiment [3] worked out at 12%.
For the substance “Tyr-Gly-Phe-Leu (YGFL; printed: Tyr-Gly-Phe-Leu) [SEQ ID NO: 6, enkephalin-derived peptide]”, the “inhibition of exocytosis of [3H]-L-glutamate” value in experiment [3] amounted to 4%.
The same measure, in the same setting: then “Argireline®: exocytosis inhibiting peptide, acetyl hexapeptide-8 marketed by Lipotec, residues 12 to 17 of protein SNAP-25 (Ac-EEMQRR-NH2; listed as Homo sapiens) [reference compound]”, with 18%.
